EP4818185A1, “CRYSTAL FORMS OF 20(S)-PROTOPANAXADIOL, PREPARATION METHOD THEREFOR AND USE THEREOF” (Shanghai Baocheng Tailai Technology Co., Ltd., priority 2023, dated 2025)
Values after ≈ are worked out from the molar mass of the structure shown. Values joined by “and” are separate entries in the source; they are usually repeats but may differ in a detail not shown here. Equal entries are not always repeated.

Experiments:
[1] = Bulk density and tap density test; assay type: physicochemical; conditions: for Average bulk density / Average tap density: average of three parallel tests; for Average tap density: tapped 200 times; for Bulk density: single tests No. 1-3, approx. 800 mg in 5 mL graduated cylinder; for Tap density: single tests No. 1-3, tapped 200 times
Experimental: Approximately 800 mg of each test sample was taken, and added into a 5 mL graduated cylinder, respectively, and the volume at this point was recorded. The graduated cylinder was lightly tapped against the tabletop 200 times, and the volume at this point was recorded. Three parallel tests were performed.

[2] = Mechanical stability test (grinding, tableting); assay type: physicochemical; conditions: for crystal form after grinding: manually ground in agate mortar for about 3 minutes; for crystal form after tableting / crystallinity degree after tableting: tableting under a pressure of 200 MPa
Experimental: An appropriate amount of each test sample was taken, placed respectively in an agate mortar, and manually ground for about 3 minutes, then, the crystal form was measured.
An appropriate amount of each test sample was taken, and added respectively into a tablet press. The crystal form was measured after tableting under a pressure of 200 MPa.

[3] = Repose angle test (funnel, cone); assay type: physicochemical; conditions: for Average repose angle (°): average of three parallel tests; for Repose angle (°): single tests No. 1-3, calculated from cone height and diameter
Experimental: An appropriate amount of each test sample was taken. A funnel was fixed on an iron stand and positioned perpendicularly to the tabletop. The crystal form A and crystal form B samples were added into the funnel, respectively, allowing the sample to freely fall to form a cone. The height and diameter of the cone were measured to calculate the repose angle. Three parallel tests were performed. […]

[4] = Solid-state stability test (XRPD crystal form, HPLC purity); assay type: physicochemical; conditions: for crystal form transformation (XRPD): under three conditions: 80°C sealed 1 day, 25°C/60% RH and 40°C/75% RH open 1 month
Experimental: An appropriate amount of each test sample was weighed, and subjected to stability tests under the following conditions: sealed storage at 80°C for 1 day, and open storage at 25°C/60% RH and 40°C/75% RH for 1 month, respectively. Solid samples separated under different conditions were subjected to XRPD to measure crystal form to evaluate physical stability, and HPLC to measure chemical purity to evaluate chemical stability. […]

[5] = Hygroscopicity test (dynamic vapor sorption, DVS); assay type: physicochemical; conditions: for Hygroscopic weight gain at 25°C/80% RH (%): DVS; for hygroscopicity: class per Chinese Pharmacopoeia 2020 edition definition
Experimental: The dynamic vapor sorption-desorption (DVS) curves of each sample were tested and plotted, respectively, and the experimental results are shown in table 5, wherein, the DVS profile of the crystal form A in Example 2 is shown in figure 7, the DVS profile of the crystal form B in Example 5 is shown in figure 8, and the DVS profile of the crude 20(S)-protopanaxadiol in Example 1 is shown in figure 9.
Regarding the description of hygroscopicity characteristics and the definition of hygroscopic weight gain (Guidelines for Hygroscopicity Test of Drugs, Chinese Pharmacopoeia 2020 Edition): • Deliquescent: Absorbing sufficient moisture to form a liquid • Highly hygroscopic: Hygroscopic weight gain of not less than 15% • Hygroscopic: Hygroscopic weight gain of less than 15% but not less than 2% • Slightly hygroscopic: Hygroscopic weight gain of less than 2% but not less than 0.2% • Non-hygroscopic or almost non-hygroscopic: Hygroscopic weight gain of less than 0.2%.

[6] = Solubility test (suspension equilibrated at 37°C, content by HPLC); conditions: for Solubility, FaSSIF: FaSSIF (fasted state simulated intestinal fluid); for Solubility, FaSSIF / Solubility, SGF: 37°C; for Solubility, SGF: SGF (simulated gastric fluid); for 24-hour solubility relative to LOQ: purified water and pH 1 buffer medium
Experimental: 50 mg of each test sample was weighed, and a suspension was prepared using 5.0 mL of purified water, pH 1 buffer, SGF (simulated gastric fluid), FaSSIF (fasted state simulated intestinal fluid), and FeSSIF (fed state simulated intestinal fluid), respectively. After equilibration at 37°C for 1 hour, 2 hours, 4 hours, and 24 hours, filtration was performed to obtain clear solutions. The content of the sample in the saturated solution was measured by HPLC.

[7] = physchem
[8] = Initial (baseline of stability test)

CC(C)=CCC[C@](C)(O)[C@H]1CC[C@]2(C)[C@@H]1[C@H](O)C[C@@H]1[C@@]3(C)CC[C@H](O)C(C)(C)[C@@H]3CC[C@]12C [Crystal form A, 20(S)-protopanaxadiol]
Average bulk density [1]: 0.43 g/mL | Average tap density [1]: 0.52 g/mL | Bulk density [1]: 0.44 g/mL and 0.46 g/mL and 0.40 g/mL | Tap density [1]: 0.48 g/mL and 0.56 g/mL and 0.51 g/mL | crystal form after grinding [2]: transformed into amorphous form | crystal form after tableting [2]: did not undergo crystal form transformation | Average repose angle (°) [3]: 20.5 ° | Repose angle (°) [3]: 21.2 ° and 19.0 ° and 21.4 ° | Crystal form change ([4]; 25°C/60% RH/open/1 month): No | Purity (area%) ([4]; 25°C/60% RH/open/1 month): 97.20 area% | Crystal form change ([4]; 40°C/75% RH/open/1 month): No | Purity (area%) ([4]; 40°C/75% RH/open/1 month): 97.18 area% | Crystal form change ([4]; 80°C/sealed/1 day): No | Purity (area%) ([4]; 80°C/sealed/1 day): 97.20 area% | Purity (area%) [4, 8]: 97.21 area% | chemical purity (HPLC) after storage ([4]; under three conditions): did not show a significant decrease | crystal form transformation (XRPD) [4]: did not undergo crystal form transformation | Hygroscopic weight gain at 25°C/80% RH (%) [5]: 0.5763% | Crystal form change after DVS test [5]: Unchanged | hygroscopicity [5]: slight hygroscopicity | Solubility, FaSSIF ([6]; 1 hour, 60 min): 70 µg/mL (≈ 152 µM) | Solubility, FaSSIF ([6]; 24 hours, 1440 min): 120 µg/mL (≈ 260 µM) | solubility in SGF, comparison among crystal forms [6]: no significant difference | solubility in FaSSIF, comparison with crystal form B [6]: higher than that of the crystal form B | solubility at 2 h ([7]; fassif): 73 µg/mL (≈ 158 µM) | solubility at 4 h ([7]; fassif): 72 µg/mL (≈ 156 µM) | solubility at 4 h ([7]; ph 1 buffer, pH 1): 0.11 µg/mL (≈ 0.239 µM) | solubility at 24 h ([7]; ph 1 buffer, pH 1): 0.15 µg/mL (≈ 0.326 µM) | solubility at 1 h ([7]; sgf (simulated gastric fluid)): 20 µg/mL (≈ 43.4 µM) | solubility at 2 h ([7]; sgf (simulated gastric fluid)): 21 µg/mL (≈ 45.6 µM) | solubility at 4 h ([7]; sgf (simulated gastric fluid)): 17 µg/mL (≈ 36.9 µM) | solubility at 24 h ([7]; sgf (simulated gastric fluid)): 11 µg/mL (≈ 23.9 µM) | solubility at 24 h ([7]; water): 0.13 µg/mL (≈ 0.282 µM) | solubility at 24 h ([7]; water and ph 1 buffer, pH 1): 0.13 to 0.15 µg/mL (≈ 0.282 to 0.326 µM)

CC(C)=CCC[C@](C)(O)[C@H]1CC[C@]2(C)[C@@H]1[C@H](O)C[C@@H]1[C@@]3(C)CC[C@H](O)C(C)(C)[C@@H]3CC[C@]12C [Crystal form D, 20(S)-protopanaxadiol]
Average bulk density [1]: 0.14 g/mL | Average tap density [1]: 0.21 g/mL | Bulk density [1]: 0.14 g/mL | Tap density [1]: 0.21 g/mL and 0.20 g/mL | crystal form after grinding [2]: transformed into amorphous form | crystal form after tableting [2]: did not undergo crystal form transformation | crystallinity degree after tableting [2]: decreased | Average repose angle (°) [3]: 36.8 ° | Repose angle (°) [3]: 36.7 ° and 38.2 ° and 35.5 ° | Crystal form change ([4]; 25°C/60% RH/open/1 month): No | Purity (area%) ([4]; 25°C/60% RH/open/1 month): 93.75 area% | Crystal form change ([4]; 40°C/75% RH/open/1 month): No | Purity (area%) ([4]; 40°C/75% RH/open/1 month): 93.00 area% | Crystal form change ([4]; 80°C/sealed/1 day): No | Purity (area%) ([4]; 80°C/sealed/1 day): 94.04 area% | Purity (area%) [4, 8]: 96.01 area% | chemical purity (HPLC) after storage ([4]; open storage at 25°C/60% RH and 40°C/75% RH for 1 month): slightly decreased | purity (HPLC) after storage ([4]; sealed storage at 80°C for 1 day): slightly decreased | crystal form transformation (XRPD) [4]: did not undergo crystal form transformation | Hygroscopic weight gain at 25°C/80% RH (%) [5]: 0.3863% | Crystal form change after DVS test [5]: Unchanged | hygroscopicity [5]: slight hygroscopicity | Solubility, FaSSIF ([6]; 1 hour, 60 min): 110 µg/mL (≈ 239 µM) | Solubility, FaSSIF ([6]; 2 hours, 120 min): 72 µg/mL (≈ 156 µM) | Solubility, FaSSIF ([6]; 4 hours, 240 min): 82 µg/mL (≈ 178 µM) | Solubility, FaSSIF ([6]; 24 hours, 1440 min): 100 µg/mL (≈ 217 µM) | solubility in SGF, comparison among crystal forms [6]: no significant difference | Solubility, SGF ([6]; 1 hour, 60 min): 21 µg/mL (≈ 45.6 µM) | Solubility, SGF ([6]; 2 hours, 120 min): 17 µg/mL (≈ 36.9 µM) | Solubility, SGF ([6]; 4 hours, 240 min): 16 µg/mL (≈ 34.7 µM) | Solubility, SGF ([6]; 24 hours, 1440 min): 14 µg/mL (≈ 30.4 µM) | solubility in FaSSIF, comparison with crystal form B [6]: higher than that of the crystal form B | 24-hour solubility relative to LOQ ([6]; 24 hours): lower than LOQ | solubility at 2 h ([7]; water): 0.13 µg/mL (≈ 0.282 µM)

CC(C)=CCC[C@](C)(O)[C@H]1CC[C@]2(C)[C@@H]1[C@H](O)C[C@@H]1[C@@]3(C)CC[C@H](O)C(C)(C)[C@@H]3CC[C@]12C [Crystal form B, 20(S)-protopanaxadiol]
Average bulk density [1]: 0.21 g/mL | Average tap density [1]: 0.25 g/mL | Bulk density [1]: 0.22 g/mL and 0.21 g/mL | Tap density [1]: 0.25 g/mL and 0.24 g/mL and 0.26 g/mL | crystal form after grinding [2]: transformed into amorphous form | crystal form after tableting [2]: did not undergo crystal form transformation | crystallinity degree after tableting [2]: decreased | Average repose angle (°) [3]: 24.2 ° | Repose angle (°) [3]: 25.0 ° and 24.7 ° and 22.8 ° | Crystal form change ([4]; 25°C/60% RH/open/1 month): No | Purity (area%) ([4]; 25°C/60% RH/open/1 month): 97.17 area% | Crystal form change ([4]; 40°C/75% RH/open/1 month): No | Purity (area%) ([4]; 40°C/75% RH/open/1 month): 97.15 area% | Crystal form change ([4]; 80°C/sealed/1 day): No | Purity (area%) ([4]; 80°C/sealed/1 day): 97.18 area% | Purity (area%) [4, 8]: 97.20 area% | chemical purity (HPLC) after storage ([4]; under three conditions): did not show a significant decrease | crystal form transformation (XRPD) [4]: did not undergo crystal form transformation | Hygroscopic weight gain at 25°C/80% RH (%) [5]: 0.2227% | Crystal form change after DVS test [5]: Unchanged | hygroscopicity [5]: slight hygroscopicity | Solubility, FaSSIF ([6]; 1 hour, 60 min): 34 µg/mL (≈ 73.8 µM) | Solubility, FaSSIF ([6]; 2 hours, 120 min): 39 µg/mL (≈ 84.6 µM) | Solubility, FaSSIF ([6]; 4 hours, 240 min): 42 µg/mL (≈ 91.2 µM) | Solubility, FaSSIF ([6]; 24 hours, 1440 min): 42 µg/mL (≈ 91.2 µM) | solubility in SGF, comparison among crystal forms [6]: no significant difference | Solubility, SGF ([6]; 1 hour, 60 min): 18 µg/mL (≈ 39.1 µM) | Solubility, SGF ([6]; 2 hours, 120 min): 19 µg/mL (≈ 41.2 µM) | Solubility, SGF ([6]; 4 hours, 240 min): 18 µg/mL (≈ 39.1 µM) | Solubility, SGF ([6]; 24 hours, 1440 min): 16 µg/mL (≈ 34.7 µM) | 24-hour solubility relative to LOQ ([6]; 24 hours): lower than LOQ
